Assay results from patent US20050054629A1, “Compounds and methods of treating cell proliferative diseases” (priority 2002, published 2005).
Read-outs that look alike come from different tables or passages of the source.

Columns and labels:
[1] = tested on: HCT116 colon adenocarcinoma; assay: Cytotoxicity assay (MTT), 6 days; type: cell-based, human; conditions: 6 days of treatment, read-out: Toxicity 6d (IC 50, μM) HCT116
Source text: (§1) Four human tumoral cell lines, namely HCT116 colon adenocarcinoma, H460 lung carcinoma, MCF-7 and MDA-MB-231 breast carcinoma cell lines, and three immortalized but non tumorigenic cell lines, namely NIH3T3 mouse fibroblasts and human breast-derived MCF10-A and MRC-5 were purchased at ATCC and cultured according to their recommendations. In order to determine the cytotoxicity associated with one compound, a microculture tetrazolium assay (MTT), as described by Carmichael et al (Cancer Res, 1996) with modifications, was used. Briefly, 5.10^3 or 2.10^4 cells were seeded per well in 24-well plates 24 hours before drug addition. Cells were treated with 0, 1, 10, 17.5, 25 and 50 μM of compound solubilized in DMSO, adjusting the total volume of DMSO (Dimethylsulfoxide) to 1%. Forty-eight hours or 6 days after treatment, the medium was replaced by PBS containing 0.5 mg/ml MTT (Sigma) and cells were incubated for 3 more hours at 37° C. before solubilization of formazan crystals in 100% DMSO. Absorbance was measured using a spectrophotometer at a wavelength of 550 nm. Cell surviving fraction and 50% inhibitory concentration were calculated. All assays were performed in triplicate.

MCF10-A = assay: Cytotoxicity assay (MTT), 6 days; type: cell-based; conditions: Homo sapiens, MCF-10A, 144 h, 6 days of treatment, read-out: Toxicity 6d (IC 50, μM) MCF10-A
Source text: as §1

NIH3T3 mouse fibroblasts = assay: Cytotoxicity assay (MTT), 6 days; type: cell-based; conditions: NIH3T3, 144 h, 6 days of treatment, read-out: Toxicity 6d (IC 50, μM) NIH3T3
Source text: as §1

[2] = tested on: MDA-MB-231 breast carcinoma; assay: Cytotoxicity assay (MTT), 6 days; type: cell-based; conditions: Homo sapiens, MDA-MB-231, 144 h, 6 days of treatment, read-out: Toxicity 6d (IC 50, μM) MDA231
Source text: as §1

MCF-7 breast carcinoma = assay: Cytotoxicity assay (MTT), 6 days; type: cell-based; conditions: Homo sapiens, MCF7, 144 h, 6 days of treatment, read-out: Toxicity 6d (IC 50, μM) MCF7
Source text: as §1

H460 lung carcinoma = assay: Cytotoxicity assay (MTT), 6 days; type: cell-based; conditions: Homo sapiens, NCI-H460, 144 h, 6 days of treatment, read-out: Toxicity 6d (IC 50, μM) H460
Source text: as §1

MRC-5 = assay: Cytotoxicity assay (MTT), 6 days; type: cell-based; conditions: Homo sapiens, MRC5, 144 h, 6 days of treatment, read-out: Toxicity 6d (IC 50, μM) MRC-5
Source text: as §1

cell architecture = assay: Cell architecture modification, phase contrast; type: cell-based; parameters: key: −: no effect of the compound was observed; +: an effect of the compound was observed
MDA231 = assay: Cytoskeleton analysis, actin staining (FITC-phalloidin); type: cell-based, human; conditions: 24 h treatment
Method: Since major rearrangements of cytoskeleton are observed in tumor cells and since the small GTPases are known to regulate these events, analysis of actin cytoskeleton was performed. Subconfluent cells seeded onto coverslips were treated with different concentration of compound (1, 10, 17.5, 25 and 50 μM) or vehicle for 24 h, before being fixed in 4% formaldehyde for 15 min., permeabilized in 0.2% Triton X100 for 5 minutes and incubated in PowerBlock (Biogenex) for 10 min. Actin filaments were stained with 0.5 μg/ml fluorescein isothiocyanate (FITC)-labelled phalloidin for 1 hour. Analysis was performed using an inverted fluorescent microscope.

MDA-MB-231 cells = assay: Matrigel invasion assay (Boyden chamber); type: cell-based, human; conditions: for Invasion: MDA-MB-231, Boyden chamber, matrigel
Method: Chemoinvasion assay was performed in Boyden chamber as described by Albini et al (Cancer Res, 1987) with some modifications. Polycarbonate membranes with 8 μm pores were coated with matrigel (125 μg/cm^2) at room temperature for 48 h. Two hours before experiments, the matrix was […] with serum-free medium containing 0.1% BSA.
One day after seeding, 10^6 MDA-MB-231 cells were treated overnight with different concentrations of compounds (1, 10, 17.5, 25 and 50 μM). Cells were collected with Versene (Invitrogen), counted with trypan blue exclusion, rinsed twice in serum-free medium containing 0.1% BSA and resuspended in serum-free medium containing 0.1% BSA plus the appropriate concentration of compound. 10^5 treated cells were placed in the upper chamber. Medium containing 10% of FBS plus the appropriate concentration of compound was placed in the lower chamber as a chemoattractant. The Boyden chamber was incubated 6 hours at 37° C. before the cells were fixed and stained with Diff-Quick (Dade-Berhing). Cells on the upper part of the filters were removed using a cotton swab. Cells on the underside of the filters were visualised and counted under light microscope.

HCT116 = assay: Cell viability assay (MTT), Example 32; type: cell-based, human; conditions: Homo sapiens, HCT-116, 144 h; day 6, 10% FBS
Method: FIG. 7: Antiproliferative effect of compounds on HCT116 (top) and MDA-MB-231 (bottom) cell lines measured by MTT viability assay. 2.5 10^3 (HCT116) or 7.5 10^3 (MDA-MB-231) cells were seeded in 48-well plates in growth medium containing 10% FBS, with or without various concentrations of test compounds. Cell cultures were fed every 3 days with the appropriate media. Cell viability was determined on day 6. Data were analyzed and IC50s were calculated from the dose-response curves using GraphPad Prism.
In order to determine one compound effect on cell viability, microculture tetrazolium assay (MTT) was performed as described by Carmichael et al., (1996) with modifications. Four human tumoral cell lines, namely HCT116 colon adenocarcinoma, H460 lung carcinoma, MCF-7 and MDA-MB-231 breast carcinoma cell lines, and 3 immortalized but non tumorigenic cell lines, namely NIH3T3 mouse fibroblasts and human breast-derived MCF10-A and human lung-derived MRC-5 were purchased at ATCC and cultured according to their recommendations. Briefly, 2.5 10^3 to 2 10^4 cells per well were seeded in 48-well plates 24 hours before drug addition. Cells were treated with 0 to 200 μM (11 concentrations) of compound solubilized in DMSO, adjusting the final concentration of DMSO to 1% in the well. Six days after treatment, the medium was replaced by PBS containing 0.5 mg/ml MTT (Sigma) and cells were incubated for 1-3 hours at 37° C. before solubilization of formazan crystals in 100% DMSO. Absorbance was measured using a spectrophotometer at a wavelength of 550 nm. Data was analyzed using the GraphPad Prism software (GraphPad Software, Inc., San Diego, USA), and IC50 (dose leading to 50% cell death) was calculated from the dose-response curves.

HCT116 cells = assay: Anchorage-independent cell growth assay in soft agar, Example 32; type: cell-based, human; conditions: 7 days
Method: FIG. 8: Effect of the treatment of HCT116 cells with the compounds on the size of the clones grown in soft agar. 5 10^3 cells were seeded in 24-well plates in 0.3% agar-containing medium supplemented with the designated amount of compounds. After 7 days of incubation at 37° C., pictures were taken of each well and were analyzed using the ImageJ image analysis software. In particular, clone size and number were calculated. The data were analyzed using GraphPad Prism, and IC50 was calculated.
In order to evaluate the effect of one compound on the capacity of tumour cells to grow without anchorage, HCT116 cells were seeded in soft agar. In contrast to microplate assays which average the drug's effects over an entire cell population, clonogenic assays offer the possibility of distinguishing cytotoxic agents (i.e., decreased colony number) from cytostatic agents (i.e., decreased colony size without decreased colony number; Murphy M. J. et al., 1996).
Briefly, 5 10^3 HCT116 cells were resuspended in 300 pi of complete medium containing 0.3% soft-agar (Difco) and different concentrations of compound (8 concentrations ranging from 0 to 30 μM). Cells were then poured on a solidified layer of medium containing 0.5% of soft agar plus the compound at the same concentration as in the upper layer. Cells were incubated for 7 days' at 37° C. before pictures of each well were taken using a phase contrast microscope (Nikon) and a digital camera (Nikon Coolpix 990). Pictures were subsequently analyzed using a free image analysis software from the NIH (ImageJ) allowing to determine clones size and number.
Data was analyzed using the GraphPad Prism software, and IC50 (dose leading to a 50% decrease of clone size or number) was calculated from dose-response curves. The ratio IC50 clone size/IC50 clone number was then calculated. When this ratio is equal to 1 (IC50 size=IC50 number), the compound is referred to as “cytotoxic”. When the ratio is close to 0 (IC50 size<<IC50 number), the compound is referred to as “cytostatic” (FIG. 6).

SMILES	IC50 [1] [µM]	IC50 ([1]; Homo sapiens, HCT-116, 144 h) [µM]	IC50 (MCF10-A) [µM]	IC50 (NIH3T3 mouse fibroblasts) [µM]	IC50 [2] [µM]	IC50 (MCF-7 breast carcinoma) [µM]	IC50 (H460 lung carcinoma) [µM]	IC50 (MRC-5) [µM]	Cell architecture modification phase contrast (cell architecture)	Cell architecture modification actin staining MDA231 (MDA231)	Invasion (MDA-MB-231 cells)	concentration giving significant inhibition of invasive properties of MDA-MB-231 cells (MDA-MB-231 cells) [µM]	IC50 (HCT116) [µM]	IC50 anchorage-independent growth of HCT116 (clone size) in soft agar (HCT116 cells)
O=c1cc(COCc2ccccc2)occ1OCCCCCOc1ccc(Cl)c(Cl)c1 [EH7701, 2-(Benzyloxymethyl)-5-[5-(3,4-dichlorophenyloxy)pentyloxy]-4H-pyran-4-one]	7.5	≤ 15	> 50	40	22.5	17.5	6	20	−	cell spreading	No effect			
CCCc1c(OCCCCCCOc2coc(CO)cc2=O)ccc(Cl)c1Cl [EH16701]	8.5	≤ 15	> 50	> 50	47.5	15	7	> 50	−	cell spreading	No effect			
CCCc1c(OCCCCCCCOc2coc(CO)cc2=O)ccc(Cl)c1Cl [EH17701, 5-[7-(3,4-Dichloro-2-propylphenyloxy)heptyloxy]-2-(hydroxymethyl)-4H-pyran-4-one]			> 50		35	15	5 to 10	17.5	−	cell spreading		17.5		
CCCc1cc(Cl)c(Cl)cc1OCCCCCOc1coc(CO)cc1=O [EH30701, 5-[5-(4,5-Dichloro-2-propylphenyloxy)pentyloxy]-2-(hydroxymethyl)-4H-pyran-4-one]	8	≤ 15			15	20	15		−	cell spreading	Decrease	17.5		
O=c1cc(COC2CCCCO2)occ1OCCCCCn1ccc2cc(F)ccc21 (stereo not drawn) [EHT 0533, 5-[5-(5-Fluoro-indol-1-yl)-pentyloxy]-2-(tetrahydro-pyran-2-yloxymethyl)-4H-pyran-4-one]													1.5 to 4	micromolar range
Cc1cc2ccccc2n1CCCCCOc1coc(COC2CCCCO2)cc1=O (stereo not drawn) [EHT 2427, 5-[5-(2-Methyl-indol-1-yl)-pentyloxy]-2-(tetrahydro-pyran-2-yloxymethyl)-4H-pyran-4-one]													1.5 to 4	micromolar range
O=c1cc(COC2CCCCO2)occ1OCCCCCn1ccc2ccccc21 (stereo not drawn) [EHT 7395, 5-(5-Indol-1-yl-pentyloxy)-2-(tetrahydro-pyran-2-yloxymethyl)-4H-pyran-4-one]													1.5 to 4	micromolar range
